From ChEMBL document CHEMBL5042477, “Potent Cyclic Peptide Inhibitors of FXIIa Discovered by mRNA Display with Genetic Code Reprogramming” (J Med Chem, 2021)
Active and inactive are the calls of the source. No cut-off for these calls is given here. Where a SMILES comes first, the peptide text is derived from it. Bridges are numbered along the chain shown (N, C = ends). [ ]: non-standard residue; d: D form. Tyr(3-NO2) = N[C@@H](Cc1ccc(O)c([N+](=O)[O-])c1)C(=O)O; Tyr(3-F) = N[C@@H](Cc1ccc(O)c(F)c1)C(=O)O; Phe(4-CN) = N#Cc1ccc(C[C@H](N)C(=O)O)cc1; Phe(4-F) = N[C@@H](Cc1ccc(F)cc1)C(=O)O; hTyr = N[C@@H](CCc1ccc(O)cc1)C(=O)O; hPhe = N[C@@H](CCc1ccccc1)C(=O)O

Legend:
[1] = biological target: T1, Coagulation factor XII (Homo sapiens, UniProt P00748); assay: Inhibition of human factor 12a using H-D-Pro-Phe-Arg-p-nitroanilide as chromogenic substrate assessed as liberation of p-nitroaniline measured every 5 mins for 60 min by multimode plate reader analysis
T1 sequence (P00748 whole entry): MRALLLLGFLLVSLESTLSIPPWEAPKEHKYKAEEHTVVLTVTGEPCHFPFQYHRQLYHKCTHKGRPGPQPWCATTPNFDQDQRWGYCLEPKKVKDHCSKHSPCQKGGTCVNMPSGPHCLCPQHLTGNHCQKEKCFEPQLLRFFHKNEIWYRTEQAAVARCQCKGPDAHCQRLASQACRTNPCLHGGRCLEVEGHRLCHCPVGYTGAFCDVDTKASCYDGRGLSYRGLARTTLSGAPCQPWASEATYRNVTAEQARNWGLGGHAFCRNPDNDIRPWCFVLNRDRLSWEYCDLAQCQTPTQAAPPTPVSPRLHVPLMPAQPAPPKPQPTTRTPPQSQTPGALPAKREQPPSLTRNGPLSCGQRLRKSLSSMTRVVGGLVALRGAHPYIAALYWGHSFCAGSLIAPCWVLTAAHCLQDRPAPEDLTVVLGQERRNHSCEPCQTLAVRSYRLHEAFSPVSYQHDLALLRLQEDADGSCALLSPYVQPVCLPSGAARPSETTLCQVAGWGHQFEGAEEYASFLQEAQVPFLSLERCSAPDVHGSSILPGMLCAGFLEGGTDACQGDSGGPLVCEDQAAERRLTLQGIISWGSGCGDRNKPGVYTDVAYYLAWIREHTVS

[2] = biological target: T1, Coagulation factor XII; assay: Inhibition of human factor 12a using H-D-Pro-Phe-Arg-p-nitroanilide as chromogenic substrate assessed as liberation of p-nitroaniline in presence of BSA measured every 5 mins for 60 min by multimode plate reader analysis
[3] = biological target: Coagulation factor X (Homo sapiens, UniProt P00742); assay: Inhibition of human factor 10a using methoxycarbonyl-D-Nle-Gly-Arg-pNA as substrate measured after 60 mins by microplate reader analysis
Coagulation factor X, sequence (P00742 41-179 limits assumed): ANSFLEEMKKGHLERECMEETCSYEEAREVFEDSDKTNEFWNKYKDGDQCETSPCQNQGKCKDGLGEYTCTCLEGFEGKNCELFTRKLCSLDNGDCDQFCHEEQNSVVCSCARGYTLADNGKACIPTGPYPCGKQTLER
Coagulation factor X, sequence (P00742 235-488 limits assumed): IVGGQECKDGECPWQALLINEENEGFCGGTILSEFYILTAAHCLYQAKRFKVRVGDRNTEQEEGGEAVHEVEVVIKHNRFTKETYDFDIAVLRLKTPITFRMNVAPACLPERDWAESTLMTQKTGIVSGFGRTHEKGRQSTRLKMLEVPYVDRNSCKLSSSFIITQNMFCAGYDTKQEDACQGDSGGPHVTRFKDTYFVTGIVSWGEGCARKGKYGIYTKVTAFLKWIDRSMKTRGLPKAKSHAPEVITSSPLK

[4] = test system: Plasma; assay: Anticoagulant activity in pooled human plasma assessed as reduction in ellagic acid induced thrombin generation using Z-GGR-AMC as fluorogenic substrate by calibrated automated thrombogram analysis; type: functional, cell-free
[5] = test system: Plasma; assay: Anticoagulant activity in FXII-deficient human plasma assessed as effect on total thrombin generation using Z-GGR-AMC as fluorogenic substrate at 8 uM by calibrated automated thrombogram analysis; type: functional, cell-free
[6] = test system: Plasma; assay: Anticoagulant activity in pooled human plasma assessed as prolongation of prothrombin time at 12.5 uM incubated for 7 mins; type: functional, cell-free
[7] = test system: Plasma; assay: Anticoagulant activity in pooled human plasma assessed as prolongation of activated partial thromboplastin time at 12.5 uM incubated for 7 mins; type: functional, cell-free
[8] = species on record: Homo sapiens; assay: Selectivity index, ratio of IC50 for inhibition of human factor 12a using H-D-Pro-Phe-Arg-p-nitroanilide as chromogenic substrate to IC50 for inhibition of human factor 10a using methoxycarbonyl-D-Nle-Gly-Arg-pNA as substrate
[9] = biological target: Plasma kallikrein (Homo sapiens, UniProt P03952); assay: Inhibition of plasma kallikrein (unknown origin); type: cell-free
Plasma kallikrein, sequence (P03952 20-390 limits assumed): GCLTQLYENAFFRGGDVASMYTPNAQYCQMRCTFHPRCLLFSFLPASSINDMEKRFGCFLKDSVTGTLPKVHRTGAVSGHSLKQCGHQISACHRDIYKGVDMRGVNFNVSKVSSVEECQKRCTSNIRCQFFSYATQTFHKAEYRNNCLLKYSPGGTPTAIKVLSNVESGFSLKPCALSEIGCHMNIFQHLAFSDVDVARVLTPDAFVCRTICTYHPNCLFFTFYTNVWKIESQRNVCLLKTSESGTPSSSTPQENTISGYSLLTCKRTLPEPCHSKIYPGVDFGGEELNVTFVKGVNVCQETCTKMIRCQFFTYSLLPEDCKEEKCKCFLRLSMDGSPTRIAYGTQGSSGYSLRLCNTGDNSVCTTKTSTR
Plasma kallikrein, sequence (P03952 391-638 limits assumed): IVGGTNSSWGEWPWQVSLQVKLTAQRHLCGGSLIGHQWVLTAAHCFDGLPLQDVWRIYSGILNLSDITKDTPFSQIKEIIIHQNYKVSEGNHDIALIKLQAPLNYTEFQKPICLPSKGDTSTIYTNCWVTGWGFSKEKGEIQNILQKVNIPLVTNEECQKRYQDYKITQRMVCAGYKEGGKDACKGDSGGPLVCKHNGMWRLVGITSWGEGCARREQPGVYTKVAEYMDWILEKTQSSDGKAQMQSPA

[10] = biological target: Urokinase-type plasminogen activator (Homo sapiens, UniProt P00749); assay: Inhibition of Urokinase-type plasminogen activator (unknown origin)
[11] = biological target: Plasminogen (Homo sapiens, UniProt P00747); assay: Inhibition of plasmin (unknown origin)
Plasminogen, sequence (P00747 97-580 limits assumed): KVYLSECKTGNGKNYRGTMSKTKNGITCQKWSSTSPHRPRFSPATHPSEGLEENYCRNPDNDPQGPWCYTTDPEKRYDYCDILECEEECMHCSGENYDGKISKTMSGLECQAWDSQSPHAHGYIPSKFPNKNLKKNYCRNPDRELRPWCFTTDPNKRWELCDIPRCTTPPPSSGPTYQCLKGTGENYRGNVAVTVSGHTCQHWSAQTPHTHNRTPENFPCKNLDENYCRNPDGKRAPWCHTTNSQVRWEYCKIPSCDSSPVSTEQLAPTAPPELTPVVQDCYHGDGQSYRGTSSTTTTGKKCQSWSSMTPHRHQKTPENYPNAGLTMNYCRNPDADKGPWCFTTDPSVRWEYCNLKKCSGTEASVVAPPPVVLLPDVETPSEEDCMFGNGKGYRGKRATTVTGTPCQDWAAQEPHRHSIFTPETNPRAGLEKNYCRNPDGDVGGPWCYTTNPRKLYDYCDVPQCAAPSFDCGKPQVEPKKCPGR
Plasminogen, sequence (P00747 581-810 limits assumed): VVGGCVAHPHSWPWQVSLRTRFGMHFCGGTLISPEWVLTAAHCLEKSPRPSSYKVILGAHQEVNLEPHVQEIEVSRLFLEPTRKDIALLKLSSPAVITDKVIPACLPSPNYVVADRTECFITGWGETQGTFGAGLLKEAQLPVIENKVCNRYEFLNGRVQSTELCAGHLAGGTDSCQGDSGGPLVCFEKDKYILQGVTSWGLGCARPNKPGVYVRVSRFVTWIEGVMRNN

[12] = biological target: Trypsin (Homo sapiens, UniProt P07477+P07478+P35030); assay: Inhibition of trypsin (unknown origin); type: protein assay
[13] = biological target: T2, Coagulation factor VII (Homo sapiens, UniProt P08709); assay: Inhibition of factor 7a (unknown origin)
T2 sequence (P08709 whole entry): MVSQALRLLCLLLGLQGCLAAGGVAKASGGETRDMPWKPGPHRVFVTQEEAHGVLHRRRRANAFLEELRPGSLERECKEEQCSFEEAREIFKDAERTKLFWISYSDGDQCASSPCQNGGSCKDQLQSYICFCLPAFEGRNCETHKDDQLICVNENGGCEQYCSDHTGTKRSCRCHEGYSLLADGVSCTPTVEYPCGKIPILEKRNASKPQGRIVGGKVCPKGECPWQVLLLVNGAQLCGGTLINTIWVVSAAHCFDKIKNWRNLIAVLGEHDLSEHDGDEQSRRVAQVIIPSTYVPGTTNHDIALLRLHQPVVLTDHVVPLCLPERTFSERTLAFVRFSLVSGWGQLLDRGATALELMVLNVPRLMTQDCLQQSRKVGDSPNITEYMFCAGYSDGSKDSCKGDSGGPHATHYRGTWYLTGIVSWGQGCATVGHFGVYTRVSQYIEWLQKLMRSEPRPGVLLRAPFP

[14] = biological target: T3, Coagulation factor XII (Homo sapiens) (UniProt P00748); assay: Inhibition of human factor 12a activation in citrated pooled human plasma assessed as inhibition of bradykinin release incubated for 10 mins followed by kaolin addition and measured after 15 mins by ELISA; type: cell-free; conditions: dose 1-200 µM, time 25.0 min
T3 sequence (whole entry): T1 sequence (P00748 whole entry)

[15] = Stability in pooled human plasma measured upto 24 hrs by UPLC-MS analysis; type: ADME, cell-free

IC50 [1] [µM]	IC50 [2] [µM]	IC50 [3] [µM]	Compound	also measured
0.142	0.173	–	CC(C)C[C@@H]1NC(=O)[C@H](CCC(N)=O)NC(=O)[C@H](CCCNC(=N)N)NC(=O)[C@@H]2CSCCC(=O)N3CN(CN(C3)C(=O)CCSC[C@H](NC(=O)[C@@H](N)CCCNC(=N)N)C(=O)N[C@@H](Cc3ccccc3)C(=O)N[C@@H](CCCNC(=N)N)C(=O)N[C@@H](CC(C)C)C(=O)N3CCC[C@H]3C(=O)N2)C(=O)CCSC[C@@H](C(=O)N[C@@H](CCCNC(=N)N)C(=O)O)NC(=O)[C@H](CCCNC(=N)N)NC1=O	–
> 100	–	> 100	CC[C@H](C)[C@@H]1NC(=O)[C@H](CC(C)C)NC(=O)[C@H](Cc2ccc(O)cc2)NC(=O)CSC[C@@H](C(=O)N[C@H](C(=O)N[C@@H](CO)C(=O)N[C@@H](CCCNC(=N)N)C(=O)N[C@@H](CCCNC(=N)N)C(=O)N[C@@H](C)C(=O)N[C@@H](Cc2ccccc2)C(=O)N[C@@H](Cc2ccccc2)C(=O)N[C@H](C(=O)N[C@@H](CC(=O)O)C(=O)N[C@@H](CCC(N)=O)C(=O)N[C@@H](CO)C(N)=O)[C@@H](C)O)C(C)C)NC1=O ({CH2CO}-YLICVSRRAFFTDQS-NH2; thioether N-4)	–
0.18	–	41	CC[C@H](C)[C@@H]1NC(=O)[C@H](C)NC(=O)[C@H](CCCCN)NC(=O)[C@H](Cc2ccccc2)NC(=O)[C@H](CCCNC(=N)N)NC(=O)[C@H](CC(C)C)NC(=O)[C@H](Cc2ccc(O)cc2)NC(=O)CSC[C@@H](C(N)=O)NC(=O)CNC(=O)CNC(=O)[C@H](CC(C)C)NC(=O)[C@H](CO)NC1=O ({CH2CO}-YLRFKAISLGGC-NH2; thioether N-12)	–
0.234	0.311	17	CC[C@H](C)[C@@H]1NC(=O)[C@H](Cc2c[nH]cn2)NC(=O)[C@H](CCCCN)NC(=O)[C@H](Cc2ccccc2)NC(=O)[C@H](CCCNC(=N)N)NC(=O)[C@H](CC(C)C)NC(=O)[C@H](Cc2ccc(O)cc2)NC(=O)CSC[C@@H](C(N)=O)NC(=O)CNC(=O)CNC(=O)[C@H](CC(C)C)NC(=O)[C@H](CO)NC1=O ({CH2CO}-YLRFKHISLGGC-NH2; thioether N-12)	EC50 [4]: 3.2 µM; Activity [5]: inactive; Activity [6]: Active; Activity [7]: Active; Ratio IC50 [8]: 100
0.097	0.157	35	CC(C)C[C@@H]1NC(=O)[C@H](Cc2ccc(O)cc2)NC(=O)CSC[C@@H](C(=O)N[C@@H](CCCNC(=N)N)C(=O)N[C@@H](CCCNC(=N)N)C(=O)N[C@@H](C)C(=O)N2CCC[C@H]2C(=O)N[C@@H](CC(N)=O)C(=O)N[C@@H](CO)C(N)=O)NC(=O)[C@H](CC(C)C)NC(=O)[C@H]([C@@H](C)O)NC(=O)[C@H](Cc2ccccc2)NC(=O)[C@H](CCCNC(=N)N)NC1=O ({CH2CO}-YLRFTLCRRAPNS-NH2; thioether N-7)	EC50 [4]: 1.4 µM; IC50 [9]: 43 µM; IC50 [10]: > 100 µM; IC50 [11]: 61 µM; IC50 [12]: 61 µM; Activity [6]: Active; Activity [7]: Active; IC50 [13]: > 100 µM; Ratio IC50 [8]: 100
0.372	0.673	2.2	CC(C)C[C@H](NC(=O)[C@H](C)NC(=O)[C@H](CO)NC(=O)[C@H](CCC(=O)O)NC(=O)[C@H](Cc1ccc(O)cc1)NC(=O)[C@H](CCCNC(=N)N)NC(=O)[C@@H]1CSCC(=O)N[C@@H](Cc2ccc(O)cc2)C(=O)N[C@@H](CC(C)C)C(=O)N[C@@H](CCCNC(=N)N)C(=O)N[C@@H](Cc2ccccc2)C(=O)N[C@@H]([C@@H](C)O)C(=O)N[C@@H](CC(C)C)C(=O)N1)C(=O)N[C@@H](CO)C(N)=O ({CH2CO}-YLRFTLCRYESALS-NH2; thioether N-7)	–
0.331	0.611	> 100	CC(C)C[C@@H]1NC(=O)[C@H](Cc2ccc(O)cc2)NC(=O)CSC[C@@H](C(N)=O)NC(=O)CNC(=O)CNC(=O)[C@H](CCC(N)=O)NC(=O)[C@H](CC(N)=O)NC(=O)[C@H]([C@@H](C)O)NC(=O)[C@@H]2CCCN2C(=O)[C@H](CCCCN)NC(=O)[C@H](CC(C)C)NC(=O)[C@H](CCCNC(=N)N)NC1=O ({CH2CO}-YLRLKPTNQGGC-NH2; thioether N-12)	EC50 [4]: 2.8 µM; IC50 [9]: > 100 µM; inhibition [14]: Dose-Dependent Effect; IC50 [10]: > 100 µM; IC50 [11]: > 100 µM; IC50 [12]: 12 µM; Activity [5]: inactive; Activity [7]: Active; IC50 [13]: > 100 µM; Stability [15]: Stable
8.1	–	–	CC(C)C[C@@H]1NC(=O)[C@H](Cc2ccc(C#N)cc2)NC(=O)CSC[C@@H](C(N)=O)NC(=O)CNC(=O)CNC(=O)[C@H](CCCNC(=N)N)NC(=O)[C@H](CC(=O)O)NC(=O)[C@H](CCCCN)NC(=O)[C@@H]2CCCN2C(=O)[C@H](CCCNC(=N)N)NC(=O)[C@H](Cc2ccccc2)NC(=O)[C@H](CCCNC(=N)N)NC1=O ({CH2CO}-[Phe(4-CN)]LRFRPKDRGGC-NH2; thioether N-12)	–
0.47	–	–	CC(C)C[C@@H]1NC(=O)[C@H](Cc2ccc(F)cc2)NC(=O)CSC[C@@H](C(N)=O)NC(=O)CNC(=O)CNC(=O)[C@H](CCCNC(=N)N)NC(=O)[C@H](CC(=O)O)NC(=O)[C@H](CCCCN)NC(=O)[C@@H]2CCCN2C(=O)[C@H](CCCNC(=N)N)NC(=O)[C@H](Cc2ccccc2)NC(=O)[C@H](CCCNC(=N)N)NC1=O ({CH2CO}-[Phe(4-F)]LRFRPKDRGGC-NH2; thioether N-12)	–
0.15	–	–	CC(C)C[C@@H]1NC(=O)[C@H](Cc2ccc(O)c(F)c2)NC(=O)CSC[C@@H](C(N)=O)NC(=O)CNC(=O)CNC(=O)[C@H](CCCNC(=N)N)NC(=O)[C@H](CC(=O)O)NC(=O)[C@H](CCCCN)NC(=O)[C@@H]2CCCN2C(=O)[C@H](CCCNC(=N)N)NC(=O)[C@H](Cc2ccccc2)NC(=O)[C@H](CCCNC(=N)N)NC1=O ({CH2CO}-[Tyr(3-F)]LRFRPKDRGGC-NH2; thioether N-12)	–
90	–	–	CC(C)C[C@@H]1NC(=O)[C@H](Cc2ccc(O)c([N+](=O)[O-])c2)NC(=O)CSC[C@@H](C(N)=O)NC(=O)CNC(=O)CNC(=O)[C@H](CCCNC(=N)N)NC(=O)[C@H](CC(=O)O)NC(=O)[C@H](CCCCN)NC(=O)[C@@H]2CCCN2C(=O)[C@H](CCCNC(=N)N)NC(=O)[C@H](Cc2ccccc2)NC(=O)[C@H](CCCNC(=N)N)NC1=O ({CH2CO}-[Tyr(3-NO2)]LRFRPKDRGGC-NH2; thioether N-12)	–
410	–	–	CC(C)C[C@@H]1NC(=O)[C@H](CCc2ccccc2)NC(=O)CSC[C@@H](C(N)=O)NC(=O)CNC(=O)CNC(=O)[C@H](CCCNC(=N)N)NC(=O)[C@H](CC(=O)O)NC(=O)[C@H](CCCCN)NC(=O)[C@@H]2CCCN2C(=O)[C@H](CCCNC(=N)N)NC(=O)[C@H](Cc2ccccc2)NC(=O)[C@H](CCCNC(=N)N)NC1=O ({CH2CO}-[hPhe]LRFRPKDRGGC-NH2; thioether N-12)	–
370	–	–	CC(C)C[C@@H]1NC(=O)[C@H](CCc2ccc(O)cc2)NC(=O)CSC[C@@H](C(N)=O)NC(=O)CNC(=O)CNC(=O)[C@H](CCCNC(=N)N)NC(=O)[C@H](CC(=O)O)NC(=O)[C@H](CCCCN)NC(=O)[C@@H]2CCCN2C(=O)[C@H](CCCNC(=N)N)NC(=O)[C@H](Cc2ccccc2)NC(=O)[C@H](CCCNC(=N)N)NC1=O ({CH2CO}-[hTyr]LRFRPKDRGGC-NH2; thioether N-12)	–
